# Source: US20040091985A1, “NAD phosphite oxidoreductase, a novel catalyst from bacteria for regeneration of NAD(P)H” (priority 2002, published 2004)
# Where “and” joins values, the source holds several entries; their conditions need not be identical. Equal entries are not always repeated. Entries after “also recorded” stand apart in the source; their conditions may differ.
# Assays:
# [1] = molecular target: T1, PtxD (Stutzerimonas stutzeri, UniProt O69054); assay type: biochemical, Pseudomonas stutzeri WM88; parameters: made in house
# T1 sequence (O69054 1-336): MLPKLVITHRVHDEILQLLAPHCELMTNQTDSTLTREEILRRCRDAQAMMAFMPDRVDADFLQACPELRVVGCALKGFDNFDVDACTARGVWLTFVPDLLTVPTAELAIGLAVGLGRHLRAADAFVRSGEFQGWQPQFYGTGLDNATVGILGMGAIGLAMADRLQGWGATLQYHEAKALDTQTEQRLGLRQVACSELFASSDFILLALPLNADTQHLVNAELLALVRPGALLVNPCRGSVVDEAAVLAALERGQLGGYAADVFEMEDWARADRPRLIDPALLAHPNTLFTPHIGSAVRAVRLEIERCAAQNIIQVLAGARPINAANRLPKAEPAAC
# [2] = molecular target: T1, PtxD; assay type: biochemical, Pseudomonas stutzeri WM88; parameters: made in house; remark: listed apart in the source
# [3] = molecular target: T1, PtxD; assay type: biochemical, Pseudomonas stutzeri WM88; parameters: made in house; remark: listed apart in the source
# [4] = molecular target: PtxD/LLDH (Stutzerimonas stutzeri, UniProt O69054); assay type: biochemical
# [5] = test system: PtxD/HLADH; assay type: biochemical
# [6] = molecular target: PtxD (Stutzerimonas stutzeri, UniProt O69054); assay type: biochemical
# [7] = molecular target: FDH; settings: read-out: Ki, inhibition of FDH; cited from earlier work
# [8] = molecular target: T1, PtxD; assay type: biochemical, Pseudomonas stutzeri WM88; parameters: made in house; remark: listed apart in the source
# [9] = molecular target: T1, PtxD; assay: Initial rate studies of PtxD in the presence of products (NADH, phosphate) and dead end inhibitor sulfite; assay type: biochemical, Pseudomonas stutzeri WM88; parameters: made in house
# [10] = molecular target: T1, PtxD; assay: Initial rate studies of PtxD with NAD and phosphite, kinetic model fitting
molecule,measurement,setting,value
O=C(O)CN(CCOCCOCCN(CC(=O)O)CC(=O)O)CC(=O)O [EGTA],effect on enzyme activity,[1],no effect
O=C(O)C(=O)CO [hydroxypyruvate],reduction of substrate by PtxD with NADH,[2],0.14 units/mg
O=C(O)[C@H](O)CO [D-Glycerate],"inhibitory activity on PtxD, in words",[3],moderately inhibited
"Nc1ncnc2c1ncn2[C@@H]1O[C@H](COP(=O)(O)OP(=O)(O)OC[C@H]2OC(O)[C@H](O)[C@@H]2O)[C@@H](O)[C@H]1O (stereo partly shown) [ADPR, ADP-ribose]","inhibitory activity on PtxD, in words",[3],weak enzyme inhibitors
NC(=O)c1ccc[n+]([C@@H]2O[C@H](COP(=O)([O-])OP(=O)(O)OC[C@H]3O[C@@H](n4cnc5c(N)ncnc54)[C@H](O)[C@@H]3O)[C@@H](O)[C@H]2O)c1 [NAD],TN (NAD^+),[4],12
same,TTN (NAD^+),[4],2000
same,TN (NAD^+),[5],123
same,TTN (NAD^+),[5],2000
same,total turnover numbers of NAD^+,[6],up to 2000
same,Ki,[7],150 µM
same,"Activity, cofactors",[8],100.00%
same,Ki,"[9]; Ki, inhibition of PtxD",223 µM
Nc1ncnc2c1ncn2[C@@H]1O[C@H](COP(=O)(O)OP(=O)(O)OP(=O)(O)O)[C@@H](O)[C@H]1O [ATP],"inhibitory activity on PtxD, in words",[3],weak enzyme inhibitors
NCCP(=O)(O)O [Aminoethylphosphonate],reduction of potential substrate by PtxD with NADH (reverse direction),[2],unable to catalyze the reduction
O=C(O)O [bicarbonate],reduction of potential substrate by PtxD with NADH (reverse direction),[2],unable to catalyze the reduction
[Cl-].[Na+] [NaCl],activity left,[1],37%
Nc1ncnc2c1ncn2[C@@H]1O[C@H](COP(=O)(O)OP(=O)(O)O)[C@@H](O)[C@H]1O [ADP],"inhibitory activity on PtxD, in words",[3],weak enzyme inhibitors
NC(=O)c1ccc[n+]([C@@H]2O[C@H](COP(=O)([O-])OP(=O)(O)OC[C@H]3O[C@@H](n4cnc5c(N)ncnc54)[C@H](OP(=O)(O)O)[C@@H]3O)[C@@H](O)[C@H]2O)c1 [NADP],"Activity, cofactors",[8],3.4% and 7.1% and 0.4% and 1.1%
same,ability to substitute for NAD,[8],able to substitute for NAD; also recorded: can substitute for NAD
same,"inhibitory activity on PtxD, in words",[3],weak enzyme inhibitors
Nc1ncnc2c1ncn2[C@@H]1O[C@H](COP(=O)(O)O)[C@@H](O)[C@H]1O [AMP],"inhibitory activity on PtxD, in words",[3],does not inhibit
O=NO [Nitrite],"inhibitory activity on PtxD, in words",[3],moderately inhibited
NADH,type of inhibition of PtxD,[9],competitive inhibitor
CC(C)CC(O)C(=O)O (racemic) [DL-Hydroxyisocaproate],"inhibitory activity on PtxD, in words",[3],moderately inhibited
O=C(O)CN(CCN(CC(=O)O)CC(=O)O)CC(=O)O [EDTA],effect on enzyme activity,[1],no effect
O=S(O)O [Sulfite],"inhibitory activity on PtxD, in words",[3],strong inhibitor
same,Ki,[9]; Kii,4.97 µM and 1.15 µM
same,Ki,[9]; Kis with respect to NAD,10.8 ± 0.1 µM
same,Ki,[9]; Kis with respect to phosphite,16.1 ± 0.1 µM
O=C(O)C(O)CO (stereo not shown) [glycerate],reduction of potential substrate by PtxD with NADH (reverse direction),[2],unable to catalyze the reduction
arsenate,reduction of potential substrate by PtxD with NADH (reverse direction),[2],unable to catalyze the reduction
Phosphite,"Activity, substrates",[8],100.00%
same,Km,[10],53.1 µM and ~50 µM
Arsenite,"inhibitory activity on PtxD, in words",[3],moderately inhibited
